Tests used:
S. agalactiae NDH-2 [1] = biological target: T1, S. agalactiae NDH-2 (Streptococcus agalactiae, UniProt Q8E3H1); assay: Inhibition of isolated NDH-2 NADH:quinone oxidoreductase activity (FDA-approved drug library screen and IC50); conditions: for inhibition at 25 µM: read-out: inhibition of enzymatic activity
S. agalactiae cells = assay: Inhibition of cell growth overnight under respiration permissive conditions (GI50); assay type: cell-based, Streptococcus agalactiae; conditions: for GI50: Streptococcus agalactiae, overnight growth, respiration permissive conditions, read-out: GI50 (concentration that causes 50% inhibition of cell growth); for effect on cell growth: whole cells growing under respiration permissive conditions
S. agalactiae NDH-2 [2] = biological target: T1, S. agalactiae NDH-2; assay: NDH-2 enzyme activity and kinetic parameters with NADH and soluble quinone analogues; assay type: biochemical
Description: The rate of NADH oxidation was determined using a UV-Vis spectrophotometer (Agilent Technologies model 8453) by monitoring absorbance at 340 nm (NADH oxidation) upon addition of 100 µM NADH in the presence of 2 nM enzyme and a 100 µM concentration of a quinone soluble analogue. Assays were performed at 37°C in buffer B (50 mM sodium phosphate buffer [pH 7], 150 mM NaCl) plus 125 µg ml^−1 of soy asolectin (Sigma) and 20 µM FAD. For determination of kinetic constants, 2 to 200 µM NADH and 2 to 200 µM of DMN were added to the reaction mixture containing 2 nM enzyme. Enzyme rates are expressed as a turnover number (kcat) based on moles of NADH oxidized per second per mole of enzyme.

S. agalactiae WT cells = conditions: Streptococcus agalactiae, read-out: inhibition of respiration (oxygen consumption)
Porphyromonas gingivalis = system: Porphyromonas gingivalis; parameters: method as in PMID 28087617; conditions: cited from earlier work
Streptococcus mutans = system: Streptococcus mutans; parameters: method as in PMID 28087617; conditions: cited from earlier work
M. tuberculosis = system: M. tuberculosis; parameters: method as in PMID 23439641; conditions: cited from earlier work
[3] = system: S. agalactiae Δnox2 strain; assay: Overnight growth and oxygen consumption of the Δnox2 strain with zafirlukast
S. aureus NdhC = system: S. aureus NdhC; parameters: method as in PMID 24709059; conditions: cited from earlier work

T1 sequence (Q8E3H1 2-402 limits assumed): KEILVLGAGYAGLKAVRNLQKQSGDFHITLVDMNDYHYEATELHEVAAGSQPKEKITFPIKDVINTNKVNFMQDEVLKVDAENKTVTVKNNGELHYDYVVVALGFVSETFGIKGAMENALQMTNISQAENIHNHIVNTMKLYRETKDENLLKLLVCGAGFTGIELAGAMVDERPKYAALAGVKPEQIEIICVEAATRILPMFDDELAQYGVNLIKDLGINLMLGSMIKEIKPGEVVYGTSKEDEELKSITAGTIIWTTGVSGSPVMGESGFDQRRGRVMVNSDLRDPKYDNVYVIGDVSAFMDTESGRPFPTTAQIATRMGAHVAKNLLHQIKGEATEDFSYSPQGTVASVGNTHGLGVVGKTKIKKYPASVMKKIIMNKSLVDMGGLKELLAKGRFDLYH

| Structure (SMILES) | IC50 (S. agalactiae NDH-2 [1]) [µM] | inhibition at 25 µM (S. agalactiae NDH-2 [1]) [%] | GI50 (S. agalactiae cells) [µM] | also measured |
| --- | --- | --- | --- | --- |
| CCCCC(CC)CNC(=N)NC(=N)NCCCCCCNC(=N)NC(=N)NCC(CC)CCCC (stereo not shown) [Alexidine] | 16.8 ± 1.26 | ≥ 80 | 2.7 ± 0.51 | – |
| CC[C@H](C)C[C@H](C)CCCCCCCCC(=O)N[C@H]1C[C@@H](O)[C@@H](NCCN)NC(=O)[C@@H]2[C@@H](O)CCN2C(=O)[C@H]([C@H](O)CCN)NC(=O)[C@H]([C@H](O)[C@@H](O)c2ccc(O)cc2)NC(=O)[C@@H]2C[C@@H](O)CN2C(=O)[C@H]([C@@H](C)O)NC1=O [Caspofungin] | 15.2 ± 2.33 | ≥ 80 | 41 ± 2.62 | – |
| Cc1cc(C(C#N)c2ccc(Cl)cc2)c(Cl)cc1NC(=O)c1cc(I)cc(I)c1O (stereo not shown) [Closantel] | 5.34 ± 0.65 | ≥ 80 | 0.25 ± 0.04 | – |
| CC1=C(C)C(=O)c2ccccc2C1=O [DMN, 2,3-dimethyl-1,4-naphthoquinone] | – | – | – | turnover number (S. agalactiae NDH-2 [2]; with DMN as electron acceptor): about 800 NADH/s^−1 |
| NC(=O)C1=CN([C@@H]2O[C@H](COP(=O)(O)OP(=O)(O)OC[C@H]3O[C@@H](n4cnc5c(N)ncnc54)[C@H](O)[C@@H]3O)[C@@H](O)[C@H]2O)C=CC1 [NADH] | – | – | – | Km (S. agalactiae NDH-2 [2]; 2 nM enzyme, 2 to 200 µM NADH and DMN, 37°C, pH 7, read-out: Km for the enzyme's substrates): 11 µM |
| COC1=C(OC)C(=O)C(CC=C(C)C)=C(C)C1=O [Q1, ubiquinone-1] | – | – | – | enzyme activity corresponding to 100% (NADH oxidation) (S. agalactiae NDH-2 [2]; 100 µM quinone analogue, 100 µM NADH, Fig. 2C): 4,190 NADH s^−1 |
| CSc1nc2cc(Cl)c(Oc3cccc(Cl)c3Cl)cc2[nH]1 [Triclabendazole] | 0.14 ± 0.02 | ≥ 80 | 15.3 ± 1.92 | – |
| COc1cc(C(=O)NS(=O)(=O)c2ccccc2C)ccc1Cc1cn(C)c2ccc(NC(=O)OC3CCCC3)cc12 [Zafirlukast] | 0.83 ± 0.07 | ≥ 80 | 6.07 ± 0.1 | inhibition at 7.5 µM (S. agalactiae WT cells): 90%; activity against Porphyromonas gingivalis (Porphyromonas gingivalis): antibacterial and antibiofilm activity; activity against Streptococcus mutans (Streptococcus mutans): antibacterial and antibiofilm activity; activity against M. tuberculosis (M. tuberculosis): bactericidal activity; growth under respiration permissive compared to nonpermissive conditions ([3]; Δnox2 strain grown overnight with 7.5 µM zafirlukast (~GI50)): does not exhibit enhanced growth; oxygen utilization compared to cells grown in the absence of zafirlukast ([3]; Δnox2 strain grown overnight with 7.5 µM zafirlukast, respiration permissive): substantially lower |
| CCOc1nc2cccc(C(=O)O)c2n1Cc1ccc(-c2ccccc2-c2nnn[nH]2)cc1 [candesartan] | – | ≥ 80 | – | effect on cell growth (S. agalactiae cells): no effect on cell growth |
| Oc1c(Cl)cc(Cl)c(Cl)c1Cc1c(O)c(Cl)cc(Cl)c1Cl [hexachlorophene] | – | – | – | inhibition of enzymatic activity (S. agalactiae NDH-2 [1]; 25 µM each compound, pure enzyme, NADH and menadione): at least 80% |
| O=c1c(O[C@@H]2O[C@H](CO)[C@@H](O)[C@H](O)[C@H]2O)c(-c2ccc(O)c(O)c2)oc2cc(O)cc(O)c12 [isoquercetin] | – | ≥ 80 | – | effect on cell growth (S. agalactiae cells): no effect on cell growth |
| CCCCOc1ccc(OCCCN2CCOCC2)cc1 [pramoxine] | – | ≥ 80 | – | effect on cell growth (S. agalactiae cells): no effect on cell growth |
| CSc1ccc2c(c1)N(CCC1CCCCN1C)c1ccccc1S2 (stereo not shown) [thioridazine] | – | – | – | inhibitory effect on S. aureus NdhC (S. aureus NdhC): strong inhibitory effect |
| CN1CCN(CCCN2c3ccccc3Sc3ccc(C(F)(F)F)cc32)CC1 [trifluoperazine] | – | – | – | inhibition of S. agalactiae NDH-2 (S. agalactiae NDH-2 [1]): not inhibited; inhibitory effect on S. aureus NdhC (S. aureus NdhC): strong inhibitory effect |

Reference: PMC6030563, “Type 2 NADH Dehydrogenase Is the Only Point of Entry for Electrons into the Streptococcus agalactiae Respiratory Chain and Is a Potential Drug Target” (mBio, 2018)
